Assay results from ChEMBL document CHEMBL1201861, “Genomics of Drug Sensitity in Cancer screening data, Wellcome Trust Sanger Institute”.

Assays:
Assay in all cases: cells
GAK = format: functional, cell-based, Homo sapiens; conditions: Homo sapiens, GAK;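 further: cell growth inhibition read out by a cell viability assay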
Description: SANGER: Inhibition of human GAK cell growth in a cell viability assay.

ML-2 = format: functional, cell-based; conditions: Homo sapiens;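 further: growth inhibition of ML-2 cells, measured with a cell viability readout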
Description: SANGER: Inhibition of human ML-2 cell growth in a cell viability assay.

SK-MEL-1 = format: functional, cell-based; conditions: Homo sapiens;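 further: growth inhibition of human SK-MEL-1 cells, read out by a cell viability assay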
Description: SANGER: Inhibition of human SK-MEL-1 cell growth in a cell viability assay.

SH-4 = format: functional, cell-based, Homo sapiens; conditions: Homo sapiens, SH-4;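 further: growth inhibition of SH-4 cells, read out with a cell viability assay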
Description: SANGER: Inhibition of human SH-4 cell growth in a cell viability assay.

L-363 = format: functional, cell-based; conditions: Homo sapiens
Description: SANGER: Inhibition of human L-363 cell growth in a cell viability assay.

NCI-H1648 = format: functional, cell-based, Homo sapiens; conditions: Homo sapiens, NCI-H1648;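 further: cell viability assay measuring inhibition of NCI-H1648 cell growth, from the Sanger screening data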
Description: SANGER: Inhibition of human NCI-H1648 cell growth in a cell viability assay.

GB-1 = format: functional, cell-based, Homo sapiens; conditions: Homo sapiens, GB-1;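 further: growth of GB-1 cells judged by a viability assay, IC50 marks the concentration inhibiting growth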
Description: SANGER: Inhibition of human GB-1 cell growth in a cell viability assay.

D-247MG = format: functional, cell-based, Homo sapiens; conditions: Homo sapiens, D-247MG
Description: SANGER: Inhibition of human D-247MG cell growth in a cell viability assay.

Becker = format: functional, cell-based, Homo sapiens; conditions: Homo sapiens, Becker;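 further: growth inhibition of Becker cells, read out with a cell viability assay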
Description: SANGER: Inhibition of human Becker cell growth in a cell viability assay.

HC-1 = format: functional, cell-based; conditions: Homo sapiens;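 further: growth inhibition of HC-1 cells measured by a cell viability assay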
Description: SANGER: Inhibition of human HC-1 cell growth in a cell viability assay.

ACN = format: functional, cell-based, Homo sapiens; conditions: Homo sapiens, ACN;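 further: growth inhibition of the human ACN cell line, read out via cell viability testing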
Description: SANGER: Inhibition of human ACN cell growth in a cell viability assay.

NCI-H209 = format: functional, cell-based; conditions: Homo sapiens;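 further: growth inhibition of human NCI-H209 cells, measured by a cell viability assay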
Description: SANGER: Inhibition of human NCI-H209 cell growth in a cell viability assay.

DJM-1 = format: functional, cell-based, Homo sapiens; conditions: Homo sapiens, DJM-1;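 further: growth inhibition of human DJM-1 cells, read out by a cell viability assay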
Description: SANGER: Inhibition of human DJM-1 cell growth in a cell viability assay.

LB373-MEL-D = format: functional, cell-based, Homo sapiens; conditions: Homo sapiens, LB373-MEL-D;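 further: growth inhibition of the cell line, read out in a cell viability assay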
Description: SANGER: Inhibition of human LB373-MEL-D cell growth in a cell viability assay.

NCI-H1770 = format: functional, cell-based; conditions: Homo sapiens;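 further: growth inhibition of NCI-H1770 cells determined with a viability readout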
Description: SANGER: Inhibition of human NCI-H1770 cell growth in a cell viability assay.

LB2241-RCC = format: functional, cell-based, Homo sapiens; conditions: Homo sapiens, LB2241-RCC;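 further: cell viability assay measuring how strongly the cultured human renal carcinoma line is prevented from growing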
Description: SANGER: Inhibition of human LB2241-RCC cell growth in a cell viability assay.

RS4-11 = format: functional, cell-based; conditions: Homo sapiens;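 further: growth inhibition of RS4-11 cells, read out by a cell viability assay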
Description: SANGER: Inhibition of human RS4-11 cell growth in a cell viability assay.

LOX IMVI = format: functional, cell-based; conditions: Homo sapiens
Description: SANGER: Inhibition of human LOXIMVI cell growth in a cell viability assay.

SCH = format: functional, cell-based, Homo sapiens; conditions: Homo sapiens, SCH;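 further: growth inhibition of human SCH cells, read out in a cell viability assay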
Description: SANGER: Inhibition of human SCH cell growth in a cell viability assay.

P30-OHK = format: functional, cell-based; conditions: Homo sapiens;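 further: growth inhibition of the P30-OHK cell line, read out with a cell viability assay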
Description: SANGER: Inhibition of human P30-OHK cell growth in a cell viability assay.

MMAC-SF = format: functional, cell-based, Homo sapiens; conditions: Homo sapiens, MMAC-SF;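 further: growth inhibition of human MMAC-SF cells, read out with a cell viability assay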
Description: SANGER: Inhibition of human MMAC-SF cell growth in a cell viability assay.

NCI-H526 = format: functional, cell-based; conditions: Homo sapiens;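 further: growth inhibition of the human NCI-H526 cell line, measured by a cell viability assay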
Description: SANGER: Inhibition of human NCI-H526 cell growth in a cell viability assay.

NB12 = format: functional, cell-based, Homo sapiens; conditions: Homo sapiens, NB12;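 further: growth inhibition of human NB12 cells, read out by a cell viability assay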
Description: SANGER: Inhibition of human NB12 cell growth in a cell viability assay.

MFM-223 = format: functional, cell-based, Homo sapiens; conditions: Homo sapiens, MFM-223
Description: SANGER: Inhibition of human MFM-223 cell growth in a cell viability assay.

KM-H2 = format: functional, cell-based; conditions: Homo sapiens;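 further: growth inhibition of KM-H2 cells, read out by a cell viability assay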
Description: SANGER: Inhibition of human KM-H2 cell growth in a cell viability assay.

TE-10 = format: functional, cell-based, Homo sapiens; conditions: Homo sapiens, TE-10;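 further: growth inhibition of TE-10 cells, measured by a cell viability assay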
Description: SANGER: Inhibition of human TE-10 cell growth in a cell viability assay.

NCI-H1155 = format: functional, cell-based; conditions: Homo sapiens;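 further: cell growth inhibition measured by a viability assay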
Description: SANGER: Inhibition of human NCI-H1155 cell growth in a cell viability assay.

MV4-11 = format: functional, cell-based, MV-4-11; conditions: Homo sapiens;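 further: cell viability readout measuring growth inhibition of human MV-4-11 cells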
Description: SANGER: Inhibition of human MV-4-11 cell growth in a cell viability assay.

KGN = format: functional, cell-based, Homo sapiens; conditions: Homo sapiens, KGN;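 further: growth inhibition of KGN cells, read out with a cell viability assay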
Description: SANGER: Inhibition of human KGN cell growth in a cell viability assay.

JVM-3 = format: functional, cell-based; conditions: Homo sapiens;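 further: growth inhibition of human JVM-3 cells, read out with a cell viability assay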
Description: SANGER: Inhibition of human JVM-3 cell growth in a cell viability assay.

BV-173 = format: functional, cell-based; conditions: Homo sapiens
Description: SANGER: Inhibition of human BV-173 cell growth in a cell viability assay.

KMOE-2 = format: functional, cell-based; conditions: Homo sapiens;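 further: growth inhibition of human KMOE-2 cells, read out with a cell viability assay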
Description: SANGER: Inhibition of human KMOE-2 cell growth in a cell viability assay.

KARPAS-299 = format: functional, cell-based; conditions: Homo sapiens
Description: SANGER: Inhibition of human KARPAS-299 cell growth in a cell viability assay.

SMILES | IC50 (ML-2) [µM] | IC50 (SK-MEL-1) [µM] | IC50 (SH-4) [µM] | IC50 (L-363) [µM] | IC50 (NCI-H1648) [µM] | IC50 (GB-1) [µM] | IC50 (D-247MG) [µM] | IC50 (Becker) [µM] | IC50 (HC-1) [µM] | IC50 (ACN) [µM] | IC50 (NCI-H209) [µM] | IC50 (DJM-1) [µM] | IC50 (LB373-MEL-D) [µM] | IC50 (NCI-H1770) [µM] | IC50 (LB2241-RCC) [µM] | IC50 (LOX IMVI) [µM] | IC50 (SCH) [µM] | IC50 (P30-OHK) [µM] | IC50 (MMAC-SF) [µM] | IC50 (NCI-H526) [µM] | further results
CC1=C2C[C@H]3[C@@H](CC=C4C[C@@H](O)CC[C@@]43C)[C@@H]2CC[C@]12O[C@@H]1C[C@H](C)CN[C@H]1[C@H]2C [CYCLOPAMINE] | > 16 | > 16 | > 16 | > 16 | > 16 | > 16 | > 16 | > 16 | > 16 | > 16 | > 16 | > 16 | > 16 | > 16 | > 16 | > 16 | > 16 | > 16 | > 16 | > 16 | IC50 (GAK): > 16 µM; IC50 (RS4-11): > 16 µM; IC50 (NB12): > 16 µM; IC50 (MFM-223): > 16 µM; IC50 (KM-H2): > 16 µM; IC50 (TE-10): > 16 µM; IC50 (NCI-H1155): > 16 µM; IC50 (MV4-11): > 16 µM; IC50 (KGN): > 16 µM; IC50 (JVM-3): > 16 µM; IC50 (BV-173): > 16 µM; IC50 (KMOE-2): > 16 µM; IC50 (KARPAS-299): > 16 µM
CS(=O)(=O)CCNCc1ccc(-c2ccc3ncnc(Nc4ccc(OCc5cccc(F)c5)c(Cl)c4)c3c2)o1 [LAPATINIB] | > 2 | > 2 | > 2 | > 2 | 0.0254 | > 2 | > 2 | > 2 | > 2 | > 2 | > 2 | > 2 | > 2 | > 2 | 1.15 | > 2 | > 2 | > 2 | > 2 | > 2 | IC50 (RS4-11): > 2 µM; IC50 (NB12): > 2 µM; IC50 (MFM-223): > 2 µM; IC50 (KM-H2): > 2 µM; IC50 (TE-10): > 2 µM; IC50 (NCI-H1155): > 2 µM; IC50 (MV4-11): > 2 µM; IC50 (KGN): > 2 µM; IC50 (JVM-3): > 2 µM; IC50 (BV-173): > 2 µM; IC50 (KMOE-2): > 2 µM; IC50 (KARPAS-299): > 2 µM
CCc1nc(N)nc(N)c1-c1ccc(Cl)cc1 [PYRIMETHAMINE] | 11.5 | > 20 | > 20 | > 20 | > 20 | > 20 | > 20 | > 20 | 5.65 | 2.3 | 6.06 | > 20 | > 20 | > 20 | > 20 | 13 | 16.9 | > 20 | > 20 | 7.92 | IC50 (GAK): > 20 µM; IC50 (RS4-11): > 20 µM; IC50 (NB12): > 20 µM; IC50 (MFM-223): > 20 µM; IC50 (KM-H2): 12 µM; IC50 (TE-10): > 20 µM; IC50 (NCI-H1155): > 20 µM; IC50 (MV4-11): 11.4 µM; IC50 (KGN): > 20 µM; IC50 (JVM-3): > 20 µM; IC50 (BV-173): 12.7 µM; IC50 (KMOE-2): > 20 µM; IC50 (KARPAS-299): > 20 µM
CNC(=O)c1cc(Oc2ccc(NC(=O)Nc3ccc(Cl)c(C(F)(F)F)c3)cc2)ccn1 [SORAFENIB] | […] | […] | 0.656 | […] | […] | […] | 2.14 | […] | […] | […] | […] | […] | […] | […] | […] | […] | […] | […] | […] | […] | IC50 (GAK): […]; IC50 (NB12): […]; IC50 (MFM-223): […]; IC50 (KM-H2): […]; IC50 (TE-10): […]; IC50 (NCI-H1155): […]; IC50 (MV4-11): < 0.0156 µM; IC50 (KGN): […]; IC50 (JVM-3): […]; IC50 (BV-173): […]; IC50 (KMOE-2): 2.81 µM; IC50 (KARPAS-299): […]
O=C(/C=C/c1ccccc1)NC(NC(=S)Nc1cccc2cccnc12)C(Cl)(Cl)Cl (stereo unspecified) [SALUBRINAL] | 4.62 | > 16 | > 16 | 13.6 | > 16 | > 16 | > 16 | 5.79 | 11.2 | > 16 | > 16 | > 16 | > 16 | > 16 | 4.99 | > 16 | > 16 | > 16 | > 16 | > 16 | IC50 (GAK): > 16 µM; IC50 (RS4-11): > 16 µM; IC50 (NB12): > 16 µM; IC50 (MFM-223): > 16 µM; IC50 (KM-H2): > 16 µM; IC50 (TE-10): > 16 µM; IC50 (NCI-H1155): > 16 µM; IC50 (MV4-11): > 16 µM; IC50 (KGN): > 16 µM; IC50 (JVM-3): > 16 µM; IC50 (BV-173): 11.5 µM; IC50 (KMOE-2): 13.1 µM; IC50 (KARPAS-299): > 16 µM
C=C1C(=O)O[C@@H]2C3O[C@]3(C)CC/C=C(\C)CC[C@@H]12 (stereo partly specified) | > 5 | > 5 | > 5 | > 5 | > 5 | > 5 | > 5 | > 5 | > 5 | > 5 | > 5 | > 5 | > 5 | > 5 | > 5 | > 5 | > 5 | > 5 | > 5 | > 5 | IC50 (GAK): > 5 µM; IC50 (RS4-11): > 5 µM; IC50 (NB12): > 5 µM; IC50 (MFM-223): > 5 µM; IC50 (KM-H2): > 5 µM; IC50 (TE-10): > 5 µM; IC50 (NCI-H1155): > 5 µM; IC50 (MV4-11): > 5 µM; IC50 (KGN): > 5 µM; IC50 (JVM-3): > 5 µM; IC50 (BV-173): > 5 µM; IC50 (KMOE-2): > 5 µM; IC50 (KARPAS-299): > 5 µM
